Experimental data published in PubChem BioAssay (NCI).
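Assay format: 96-well plates, 48-hour exposure. Here, GI50 denotes the concentration required for 50% inhibition of growth. TGI: total growth inhibition.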

Columns and labels:
Assay in all cases: NCI tumour cell line growth inhibition, 48 h
SF-539 CNS = tested on: SF-539 CNS
HCC-2998 colon = tested on: HCC-2998 colon
OVCAR-8 ovarian = tested on: OVCAR-8 ovarian
TK-10 renal = tested on: TK-10 renal
BT-549 breast = tested on: BT-549 breast
SF-295 CNS = tested on: SF-295 CNS
UACC-62 melanoma = tested on: UACC-62 melanoma
HOP-92 NSCLC = tested on: HOP-92 NSCLC
SR leukemia = tested on: SR leukemia
SK-MEL-5 melanoma = tested on: SK-MEL-5 melanoma

## C[N+](C)([O-])Cc1cccc(NC(=O)c2ccc(C(=O)Nc3cccc(C[N+](C)(C)[O-])c3)cc2)c1
SF-539 CNS
  TGI: > 100 µM
HCC-2998 colon
  TGI: > 100 µM
OVCAR-8 ovarian
  TGI: > 100 µM
TK-10 renal
  TGI: > 100 µM
BT-549 breast
  TGI: > 100 µM
SF-295 CNS
  TGI: > 100 µM
UACC-62 melanoma
  TGI: > 100 µM
HOP-92 NSCLC
  TGI: > 100 µM
SR leukemia
  TGI: > 100 µM
SK-MEL-5 melanoma
  TGI: > 100 µM

## Nc1c2ccccc2nc2ccc(C(=O)Nc3ccc(S(N)(=O)=O)cc3)cc12
SF-539 CNS
  TGI: > 100 µM
HCC-2998 colon
  TGI: > 100 µM
OVCAR-8 ovarian
  TGI: > 100 µM
TK-10 renal
  TGI: > 100 µM
BT-549 breast
  TGI: > 100 µM
SF-295 CNS
  TGI: > 100 µM
UACC-62 melanoma
  TGI: > 100 µM
HOP-92 NSCLC
  TGI: > 100 µM
SR leukemia
  TGI: > 100 µM
SK-MEL-5 melanoma
  TGI: > 100 µM

## CC(C)(C)OC(=O)N(CCCN)CCCCN(CCCN)C(=O)OC(C)(C)C
SF-539 CNS
  TGI: > 100 µM
HCC-2998 colon
  TGI: > 100 µM
OVCAR-8 ovarian
  TGI: > 100 µM
TK-10 renal
  TGI: > 100 µM
BT-549 breast
  TGI: > 100 µM
SF-295 CNS
  TGI: > 100 µM
UACC-62 melanoma
  TGI: > 100 µM
HOP-92 NSCLC
  TGI: > 100 µM
SR leukemia
  TGI: > 100 µM
SK-MEL-5 melanoma
  TGI: > 100 µM

## CC(C)NC(=O)OCc1c(COC(=O)NC(C)C)c(-c2ccc[n+](COC(=O)C3CCCCC3)c2)n2c1CCC2
SF-539 CNS
  TGI: > 100 µM
HCC-2998 colon
  TGI: > 100 µM
OVCAR-8 ovarian
  TGI: > 100 µM
TK-10 renal
  TGI: > 100 µM
BT-549 breast
  TGI: > 100 µM
SF-295 CNS
  TGI: > 100 µM
UACC-62 melanoma
  TGI: 87.4 µM
HOP-92 NSCLC
  TGI: > 100 µM
SR leukemia
  TGI: > 100 µM
SK-MEL-5 melanoma
  TGI: > 100 µM

## O=C(c1ccccc1)c1cc(-c2ccccc2)c(-c2ccccc2)[nH]c(=O)c1=O
SF-539 CNS
  TGI: > 100 µM
HCC-2998 colon
  TGI: 60.6 µM
OVCAR-8 ovarian
  TGI: > 100 µM
TK-10 renal
  TGI: > 100 µM
BT-549 breast
  TGI: 53.1 µM
SF-295 CNS
  TGI: > 100 µM
UACC-62 melanoma
  TGI: 82.2 µM
HOP-92 NSCLC
  TGI: > 100 µM
SR leukemia
  TGI: 57.1 µM
SK-MEL-5 melanoma
  TGI: > 100 µM

## COC(=O)C(I(OS(=O)(=O)c1ccc(C)cc1)c1ccccc1)=P(c1ccccc1)(c1ccccc1)c1ccccc1
SF-539 CNS
  TGI: 34.9 µM
HCC-2998 colon
  TGI: 34.8 µM
OVCAR-8 ovarian
  TGI: 48.1 µM
TK-10 renal
  TGI: 57 µM
BT-549 breast
  TGI: 45.5 µM
SF-295 CNS
  TGI: 87 µM
UACC-62 melanoma
  TGI: 35.1 µM
HOP-92 NSCLC
  TGI: 35.4 µM
SR leukemia
  TGI: 49.7 µM
SK-MEL-5 melanoma
  TGI: 26.1 µM

## O=C1CSC(c2ccc(Cl)cc2)N1c1ccc(-n2c(-c3ccccc3)nc3ccccc3c2=O)cc1 (stereo not given)
SF-539 CNS
  TGI: > 100 µM
HCC-2998 colon
  TGI: > 100 µM
OVCAR-8 ovarian
  TGI: > 100 µM
TK-10 renal
  TGI: > 100 µM
BT-549 breast
  TGI: > 100 µM
SF-295 CNS
  TGI: > 100 µM
UACC-62 melanoma
  TGI: > 100 µM
HOP-92 NSCLC
  TGI: > 100 µM
SR leukemia
  TGI: > 100 µM
SK-MEL-5 melanoma
  TGI: > 100 µM

## CN(C)CCCn1c2c(c3ccncc3c1=O)C(=O)c1ccccc1-2
SF-539 CNS
  GI50: 0.714 µM
  TGI: 5.95 µM
HCC-2998 colon
  GI50: 1.38 µM
  TGI: 5.31 µM
OVCAR-8 ovarian
  GI50: 0.616 µM
  TGI: 15.3 µM
TK-10 renal
  GI50: 1.98 µM
  TGI: 24.3 µM
BT-549 breast
  GI50: 2.09 µM
  TGI: 13.1 µM
SF-295 CNS
  GI50: 1.06 µM
  TGI: 10.3 µM
UACC-62 melanoma
  GI50: 1.22 µM
  TGI: 3.74 µM
HOP-92 NSCLC
  GI50: 0.155 µM
  TGI: 2.39 µM
SR leukemia
  GI50: 0.313 µM
  TGI: 11.9 µM
SK-MEL-5 melanoma
  GI50: 1.07 µM
  TGI: 2.5 µM

## Cc1ccc(-c2cn3c(nc4ccccc43)c(C)n2)cc1
SF-539 CNS
  TGI: > 100 µM
HCC-2998 colon
  TGI: > 100 µM
OVCAR-8 ovarian
  TGI: > 100 µM
TK-10 renal
  TGI: > 100 µM
BT-549 breast
  TGI: > 89.4 µM
SF-295 CNS
  TGI: > 100 µM
UACC-62 melanoma
  TGI: > 81.3 µM
HOP-92 NSCLC
  TGI: 98.1 µM
SR leukemia
  TGI: > 100 µM
SK-MEL-5 melanoma
  TGI: 40.3 µM

## COc1cc(OC)cc(N(C)Cc2cnc3nc(N)nc(N)c3c2C)c1
SF-539 CNS
  TGI: 4.96 µM
HCC-2998 colon
  TGI: > 100 µM
OVCAR-8 ovarian
  TGI: > 100 µM
TK-10 renal
  TGI: > 100 µM
BT-549 breast
  TGI: > 100 µM
SF-295 CNS
  TGI: > 100 µM
UACC-62 melanoma
  TGI: > 100 µM
HOP-92 NSCLC
  TGI: > 100 µM
SR leukemia
  TGI: > 100 µM
SK-MEL-5 melanoma
  TGI: > 100 µM

## CCCCCCc1cc2cc(C(=O)Nc3cccc(C(F)(F)F)c3)c(=N)oc2cc1O
SF-539 CNS
  TGI: 3.59 µM
HCC-2998 colon
  TGI: 15.8 µM
OVCAR-8 ovarian
  TGI: 3.72 µM
TK-10 renal
  TGI: 46.6 µM
BT-549 breast
  TGI: 6.1 µM
SF-295 CNS
  TGI: 14.1 µM
UACC-62 melanoma
  TGI: 6.02 µM
HOP-92 NSCLC
  TGI: 2.14 µM
SR leukemia
  TGI: 4.37 µM
SK-MEL-5 melanoma
  TGI: 2.45 µM

## N#Cc1c(C#N)c(-c2ccco2)n(/N=C/c2ccco2)c1N
SF-539 CNS
  TGI: > 100 µM
HCC-2998 colon
  TGI: > 100 µM
OVCAR-8 ovarian
  TGI: 66.2 µM
TK-10 renal
  TGI: > 100 µM
BT-549 breast
  TGI: > 100 µM
SF-295 CNS
  TGI: > 100 µM
UACC-62 melanoma
  TGI: > 100 µM
HOP-92 NSCLC
  TGI: 61.2 µM
SR leukemia
  TGI: > 100 µM
SK-MEL-5 melanoma
  TGI: > 100 µM

## CN(C)CCCNc1ccc2nnn3c4ccc([N+](=O)[O-])cc4c(=O)c1c23
SF-539 CNS
  TGI: 14.2 µM
HCC-2998 colon
  TGI: 10.4 µM
OVCAR-8 ovarian
  TGI: 5.38 µM
TK-10 renal
  TGI: 7.95 µM
BT-549 breast
  TGI: 19.2 µM
SF-295 CNS
  TGI: 7.44 µM
UACC-62 melanoma
  TGI: 14.4 µM
HOP-92 NSCLC
  TGI: 7.45 µM
SR leukemia
  TGI: 6.03 µM
SK-MEL-5 melanoma
  TGI: 5.97 µM

## CC(C)(C)OC(=O)NCCNC(=O)OCc1ccccc1
SF-539 CNS
  TGI: > 100 µM
HCC-2998 colon
  TGI: > 100 µM
OVCAR-8 ovarian
  TGI: > 100 µM
TK-10 renal
  TGI: > 100 µM
BT-549 breast
  TGI: > 100 µM
SF-295 CNS
  TGI: > 100 µM
UACC-62 melanoma
  TGI: > 100 µM
HOP-92 NSCLC
  TGI: > 100 µM
SR leukemia
  TGI: > 100 µM
SK-MEL-5 melanoma
  TGI: > 100 µM

## Clc1ccc(CCn2ccc3ccccc32)c(Cl)c1
SF-539 CNS
  TGI: > 100 µM
HCC-2998 colon
  TGI: > 100 µM
OVCAR-8 ovarian
  TGI: > 100 µM
TK-10 renal
  TGI: > 100 µM
BT-549 breast
  TGI: > 100 µM
SF-295 CNS
  TGI: > 100 µM
UACC-62 melanoma
  TGI: > 100 µM
HOP-92 NSCLC
  TGI: > 100 µM
SR leukemia
  TGI: > 100 µM
SK-MEL-5 melanoma
  TGI: > 100 µM
